What was measured:
[1] = system: wounds of STZ-induced diabetic Nrf2+/+ mice; assay: Wound closure in STZ-induced diabetic mouse model; assay type: in vivo; conditions: for wound closure / diameter of granulation tissue between the flanking hair follicles: STZ mice; for wound closure: 12.5 mg/kg SF or 50 mg/kg CA i.p. every other day, up to 14 days after wound surgery, vs untreated STZ; for diameter of granulation tissue between the flanking hair follicles: day 14 post-surgery, histological examination
Source text: Diabetes mouse model and treatments. Nrf2^+/+ and Nrf2^-/- C57BL/6 mice were described previously (see, e.g., Jiang T, et al., Diabetes 59:850-860, 2010) and were housed and handled in accordance with the University of Arizona Institutional Animal Care policies. The STZ-induced diabetic model was previously described (see, e.g., Zheng H, et al., Diabetes 60:3055-3066, 2011) and only 8 week old male mice were included in this study. Briefly, three weeks after STZ injections, fasting glucose levels (FGL, 4 h fast) were measured using the AlphaTRAK system (Abbott Laboratory, North Chicago, Ill.) and mice with a FGL higher than or equal to 250 mg/dL were considered diabetic and included in the study (see, e.g., FIG. 2A and FIG. 3A for a detailed timeline). The mice (n=5-8) were then allocated randomly to each of the indicated treatment groups and received corn oil (control), 12.5 mg/kg SF or 50 mg/kg CA intraperitoneally every two days until skin tissues were harvested. One week after the treatments, the mice were anesthetized, their backs were shaved and cleaned. Two wounds were made with a sterile 6 mm skin biopsy punch (Health link, Jacksonville, Fla.) and covered with 3M Tegaderm pads. The wounds were photographed using an in vivo imaging system and an infrared integrated system ([…], Northampton, UK) for 14 days. Gross wound closure was quantified by ImageJ software, and wound healing was expressed as the percentage of the original wound area that had healed. The tissues were collected using an 8 mm skin biopsy punch; one half was fixed in 10% buffered formalin and embedded in paraffin while the other half was used for protein extraction. For the experiments in non-diabetic mice (FIG. 9), mice were injected with sodium citrate buffer and randomly allocated to the treatment groups (n=3-5). Wounds and tissue collection were performed as described above.

8-oxo-dG = assay: Oxidative DNA damage (8-oxo-dG IHC) in wound skin tissues of STZ mice; assay type: in vivo, mouse
Source text: Diabetes mouse model and treatments. Nrf2^+/+ and Nrf2^-/- C57BL/6 mice were described previously (see, e.g., Jiang T, et al., Diabetes 59:850-860, 2010) and were housed and handled in accordance with the University of Arizona Institutional Animal Care policies. The STZ-induced diabetic model was previously described (see, e.g., Zheng H, et al., Diabetes 60:3055-3066, 2011) and only 8 week old male mice were included in this study. Briefly, three weeks after STZ injections, fasting glucose levels (FGL, 4 h fast) were measured using the AlphaTRAK system (Abbott Laboratory, North Chicago, Ill.) and mice with a FGL higher than or equal to 250 mg/dL were considered diabetic and included in the study (see, e.g., FIG. 2A and FIG. 3A for a detailed timeline). The mice (n=5-8) were then allocated randomly to each of the indicated treatment groups and received corn oil (control), 12.5 mg/kg SF or 50 mg/kg CA intraperitoneally every two days until skin tissues were harvested. One week after the treatments, the mice were anesthetized, their backs were shaved and cleaned. […] Gross wound closure was quantified by ImageJ software, and wound healing was expressed as the percentage of the original wound area that had healed. […] Morphology was assessed by hematoxylin and eosin (H&E) staining (Vector laboratory, Burlingame, Calif.). […]

Compound	wound closure [1]	diameter of granulation tissue between the flanking hair follicles [1]	oxidative DNA damage (8-oxo-dG) (8-oxo-dG)	wound closure compared with non-diabetic Con mice ([1]; STZ+SF mice, during the first 7 days)
O=CC=Cc1ccccc1 [CA, Cinnamaldehyde]	accelerated wound closure	markedly reduced	greatly alleviated the oxidative DNA damage	
C[S@@+]([O-])CCCCN=C=S [SF, L-sulforaphane]	accelerated wound closure	markedly reduced	greatly alleviated the oxidative DNA damage	even faster than that of the Con mice

From patent publication US20180344680A1, “COMPOSITIONS AND METHODS FOR TREATMENT, AMELIORATION, AND PREVENTION OF DIABETES-RELATED SKIN ULCERS” (THE ARIZONA BOARD OF REGENTS ON BEHALF OF THE UNIVERSITY OF …, priority 2015, published 2018)
